Source: the kinase profiling compilation of Christmann-Franck et al. (2016)

Columns and labels:
Assay in all cases: KINOMEscan competition binding
Conditions in all cases: compound 10.0 µM
ICK (human) = ICK (human) (UniProt Q9UPZ9)
GRK4 (human) = GRK4 (human) (UniProt P32298)
TAOK2 (human) = TAOK2 (human) (UniProt Q9UL54)
SIK3 (human) = SIK3 (human) (UniProt Q9Y2K2)
CSNK1A1 (human) = CSNK1A1 (human) (UniProt P48729)
DSTYK (human) = DSTYK (human) (UniProt Q6XUX3)
EGFR (human) = EGFR (human) (UniProt P00533)
[1] = test system: PIK3CA (human), P42336 [E545K]
[2] = test system: ABL1 (human), P00519 [E255K]
EPHB6 (human) = EPHB6 (human) (UniProt O15197)
PIK3CA (human) = PIK3CA (human) (UniProt P42336)
HIPK4 (human) = HIPK4 (human) (UniProt Q8NE63)
HIPK3 (human) = HIPK3 (human) (UniProt Q9H422)
MATK (human) = MATK (human) (UniProt P42679)
GRK1 (human) = GRK1 (human) (UniProt Q15835)
MET (human) = MET (human) (UniProt P08581)
PIK3C2G (human) = PIK3C2G (human) (UniProt O75747)
LRRK2 (human) = LRRK2 (human) (UniProt Q5S007)
PIK3CG (human) = PIK3CG (human) (UniProt P48736)
NEK3 (human) = NEK3 (human) (UniProt P51956)
ERBB3 (human) = ERBB3 (human) (UniProt P21860)
CDKL1 (human) = CDKL1 (human) (UniProt Q00532)
HIPK2 (human) = HIPK2 (human) (UniProt Q9H2X6)
VRK2 (human) = VRK2 (human) (UniProt Q86Y07)
MAP3K1 (human) = MAP3K1 (human) (UniProt Q13233)
ERN1 (human) = ERN1 (human) (UniProt O75460)
MAP3K13 (human) = MAP3K13 (human) (UniProt O43283)
[3] = test system: PIK3CA (human), P42336 [E545A]
PI4KB (human) = PI4KB (human) (UniProt Q9UBF8)
IRAK1 (human) = IRAK1 (human) (UniProt P51617)
HUNK (human) = HUNK (human) (UniProt P57058)
CDK4 CCND3 (human) = CDK4 CCND3 (human) (UniProt P11802+P30281)
ROCK1 (human) = ROCK1 (human) (UniProt Q13464)
STK39 (human) = STK39 (human) (UniProt Q9UEW8)
MAP3K2 (human) = MAP3K2 (human) (UniProt Q9Y2U5)
PIP5K1C (human) = PIP5K1C (human) (UniProt O60331)
SNRK (human) = SNRK (human) (UniProt Q9NRH2)
NEK11 (human) = NEK11 (human) (UniProt Q8NG66)
TRPM6 (human) = TRPM6 (human) (UniProt Q9BX84)
TIE1 (human) = TIE1 (human) (UniProt P35590)

MAP3K13 (human), sequence (O43283 whole entry, looked up): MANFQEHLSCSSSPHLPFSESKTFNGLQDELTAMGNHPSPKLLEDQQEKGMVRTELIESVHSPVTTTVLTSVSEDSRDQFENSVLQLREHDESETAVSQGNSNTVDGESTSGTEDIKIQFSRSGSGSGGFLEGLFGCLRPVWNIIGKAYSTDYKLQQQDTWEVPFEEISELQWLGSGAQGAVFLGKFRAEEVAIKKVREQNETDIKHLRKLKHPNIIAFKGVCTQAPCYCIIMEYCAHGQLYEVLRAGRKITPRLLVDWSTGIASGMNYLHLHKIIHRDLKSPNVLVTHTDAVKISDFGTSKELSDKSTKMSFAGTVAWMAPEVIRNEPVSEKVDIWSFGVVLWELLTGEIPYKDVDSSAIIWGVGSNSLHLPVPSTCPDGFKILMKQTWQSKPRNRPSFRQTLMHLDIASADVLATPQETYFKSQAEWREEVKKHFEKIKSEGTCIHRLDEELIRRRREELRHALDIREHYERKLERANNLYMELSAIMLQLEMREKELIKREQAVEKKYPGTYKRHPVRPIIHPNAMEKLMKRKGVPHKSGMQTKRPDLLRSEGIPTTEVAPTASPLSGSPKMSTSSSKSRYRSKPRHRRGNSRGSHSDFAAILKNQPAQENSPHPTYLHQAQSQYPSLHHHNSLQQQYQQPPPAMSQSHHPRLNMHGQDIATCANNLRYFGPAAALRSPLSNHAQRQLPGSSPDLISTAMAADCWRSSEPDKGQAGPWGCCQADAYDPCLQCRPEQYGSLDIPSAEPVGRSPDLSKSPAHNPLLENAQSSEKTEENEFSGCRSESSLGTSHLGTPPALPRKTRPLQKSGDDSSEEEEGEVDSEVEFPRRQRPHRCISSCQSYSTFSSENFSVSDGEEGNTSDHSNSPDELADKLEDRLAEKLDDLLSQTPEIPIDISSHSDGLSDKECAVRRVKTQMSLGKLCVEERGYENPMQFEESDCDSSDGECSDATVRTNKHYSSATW
ERBB3 (human), sequence (P21860 whole entry, looked up): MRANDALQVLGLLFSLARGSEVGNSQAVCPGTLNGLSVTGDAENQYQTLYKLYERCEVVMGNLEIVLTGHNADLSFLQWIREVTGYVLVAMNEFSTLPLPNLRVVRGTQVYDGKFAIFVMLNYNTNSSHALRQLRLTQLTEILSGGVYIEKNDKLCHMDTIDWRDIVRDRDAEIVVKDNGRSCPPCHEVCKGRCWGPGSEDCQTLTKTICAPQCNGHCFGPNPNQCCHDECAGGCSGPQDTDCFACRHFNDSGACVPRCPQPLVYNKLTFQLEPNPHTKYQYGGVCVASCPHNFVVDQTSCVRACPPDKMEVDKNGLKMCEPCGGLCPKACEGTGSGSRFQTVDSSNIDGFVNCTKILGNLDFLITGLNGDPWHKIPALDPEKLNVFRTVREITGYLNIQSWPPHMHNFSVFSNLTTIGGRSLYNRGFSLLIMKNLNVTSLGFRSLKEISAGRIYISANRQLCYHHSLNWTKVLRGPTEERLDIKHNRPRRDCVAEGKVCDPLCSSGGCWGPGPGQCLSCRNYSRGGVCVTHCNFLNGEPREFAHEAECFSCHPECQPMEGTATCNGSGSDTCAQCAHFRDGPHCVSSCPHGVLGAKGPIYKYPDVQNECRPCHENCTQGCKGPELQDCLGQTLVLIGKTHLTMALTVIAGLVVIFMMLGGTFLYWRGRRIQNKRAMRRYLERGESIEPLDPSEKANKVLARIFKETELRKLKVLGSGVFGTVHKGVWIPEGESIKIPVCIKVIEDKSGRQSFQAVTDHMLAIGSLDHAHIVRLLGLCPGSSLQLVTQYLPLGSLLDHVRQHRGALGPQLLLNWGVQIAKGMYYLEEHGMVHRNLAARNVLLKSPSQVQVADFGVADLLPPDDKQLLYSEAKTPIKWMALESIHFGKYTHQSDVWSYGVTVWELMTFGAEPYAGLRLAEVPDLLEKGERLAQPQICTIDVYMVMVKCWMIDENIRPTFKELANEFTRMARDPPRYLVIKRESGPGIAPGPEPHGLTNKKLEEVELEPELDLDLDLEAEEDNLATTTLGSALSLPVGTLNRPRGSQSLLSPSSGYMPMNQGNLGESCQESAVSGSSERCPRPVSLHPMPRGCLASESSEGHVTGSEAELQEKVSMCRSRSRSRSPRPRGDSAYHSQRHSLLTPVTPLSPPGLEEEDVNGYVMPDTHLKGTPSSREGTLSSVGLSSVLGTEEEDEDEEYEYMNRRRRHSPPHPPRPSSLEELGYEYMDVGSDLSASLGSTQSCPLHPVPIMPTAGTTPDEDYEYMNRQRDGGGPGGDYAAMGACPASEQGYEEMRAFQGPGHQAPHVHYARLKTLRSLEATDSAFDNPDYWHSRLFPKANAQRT
PIK3CA (human), sequence (P42336 whole entry, looked up): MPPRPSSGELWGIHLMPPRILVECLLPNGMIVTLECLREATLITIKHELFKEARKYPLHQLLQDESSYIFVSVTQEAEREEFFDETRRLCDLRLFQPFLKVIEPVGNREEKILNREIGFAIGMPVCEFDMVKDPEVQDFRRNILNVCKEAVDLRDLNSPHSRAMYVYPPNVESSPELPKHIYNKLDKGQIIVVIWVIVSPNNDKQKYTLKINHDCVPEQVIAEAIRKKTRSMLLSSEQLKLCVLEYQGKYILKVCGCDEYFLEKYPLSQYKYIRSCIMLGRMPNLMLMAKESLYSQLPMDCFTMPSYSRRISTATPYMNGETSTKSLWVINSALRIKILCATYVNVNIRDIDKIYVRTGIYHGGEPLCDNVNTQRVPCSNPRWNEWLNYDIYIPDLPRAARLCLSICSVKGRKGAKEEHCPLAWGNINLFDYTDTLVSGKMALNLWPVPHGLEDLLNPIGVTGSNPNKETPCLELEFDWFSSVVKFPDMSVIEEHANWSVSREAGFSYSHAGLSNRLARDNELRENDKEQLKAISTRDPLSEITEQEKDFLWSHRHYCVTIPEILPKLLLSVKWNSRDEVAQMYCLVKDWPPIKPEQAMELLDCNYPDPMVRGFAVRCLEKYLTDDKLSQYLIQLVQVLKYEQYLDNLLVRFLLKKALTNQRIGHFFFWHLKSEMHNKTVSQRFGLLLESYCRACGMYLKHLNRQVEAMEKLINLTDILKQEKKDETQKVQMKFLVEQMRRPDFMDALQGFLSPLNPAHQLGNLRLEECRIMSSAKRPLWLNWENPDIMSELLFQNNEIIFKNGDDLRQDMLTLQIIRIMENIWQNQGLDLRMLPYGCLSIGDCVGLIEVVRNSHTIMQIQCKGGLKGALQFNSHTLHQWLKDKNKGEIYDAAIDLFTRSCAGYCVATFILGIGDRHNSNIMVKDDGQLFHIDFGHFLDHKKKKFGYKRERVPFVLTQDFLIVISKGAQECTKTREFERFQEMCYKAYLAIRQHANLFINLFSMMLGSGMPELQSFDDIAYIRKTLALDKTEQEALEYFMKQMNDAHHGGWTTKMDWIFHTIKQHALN
CSNK1A1 (human), sequence (P48729 whole entry, looked up): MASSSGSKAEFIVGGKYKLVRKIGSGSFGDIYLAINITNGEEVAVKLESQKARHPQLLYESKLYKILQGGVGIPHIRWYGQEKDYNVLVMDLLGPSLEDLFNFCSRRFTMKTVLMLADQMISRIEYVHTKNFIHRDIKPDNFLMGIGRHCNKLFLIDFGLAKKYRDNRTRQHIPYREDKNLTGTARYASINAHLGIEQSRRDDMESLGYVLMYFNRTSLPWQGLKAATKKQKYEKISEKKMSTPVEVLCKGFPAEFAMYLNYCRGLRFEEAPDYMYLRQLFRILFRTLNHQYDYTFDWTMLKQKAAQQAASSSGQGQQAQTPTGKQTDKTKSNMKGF
EGFR (human), sequence (P00533 whole entry, looked up): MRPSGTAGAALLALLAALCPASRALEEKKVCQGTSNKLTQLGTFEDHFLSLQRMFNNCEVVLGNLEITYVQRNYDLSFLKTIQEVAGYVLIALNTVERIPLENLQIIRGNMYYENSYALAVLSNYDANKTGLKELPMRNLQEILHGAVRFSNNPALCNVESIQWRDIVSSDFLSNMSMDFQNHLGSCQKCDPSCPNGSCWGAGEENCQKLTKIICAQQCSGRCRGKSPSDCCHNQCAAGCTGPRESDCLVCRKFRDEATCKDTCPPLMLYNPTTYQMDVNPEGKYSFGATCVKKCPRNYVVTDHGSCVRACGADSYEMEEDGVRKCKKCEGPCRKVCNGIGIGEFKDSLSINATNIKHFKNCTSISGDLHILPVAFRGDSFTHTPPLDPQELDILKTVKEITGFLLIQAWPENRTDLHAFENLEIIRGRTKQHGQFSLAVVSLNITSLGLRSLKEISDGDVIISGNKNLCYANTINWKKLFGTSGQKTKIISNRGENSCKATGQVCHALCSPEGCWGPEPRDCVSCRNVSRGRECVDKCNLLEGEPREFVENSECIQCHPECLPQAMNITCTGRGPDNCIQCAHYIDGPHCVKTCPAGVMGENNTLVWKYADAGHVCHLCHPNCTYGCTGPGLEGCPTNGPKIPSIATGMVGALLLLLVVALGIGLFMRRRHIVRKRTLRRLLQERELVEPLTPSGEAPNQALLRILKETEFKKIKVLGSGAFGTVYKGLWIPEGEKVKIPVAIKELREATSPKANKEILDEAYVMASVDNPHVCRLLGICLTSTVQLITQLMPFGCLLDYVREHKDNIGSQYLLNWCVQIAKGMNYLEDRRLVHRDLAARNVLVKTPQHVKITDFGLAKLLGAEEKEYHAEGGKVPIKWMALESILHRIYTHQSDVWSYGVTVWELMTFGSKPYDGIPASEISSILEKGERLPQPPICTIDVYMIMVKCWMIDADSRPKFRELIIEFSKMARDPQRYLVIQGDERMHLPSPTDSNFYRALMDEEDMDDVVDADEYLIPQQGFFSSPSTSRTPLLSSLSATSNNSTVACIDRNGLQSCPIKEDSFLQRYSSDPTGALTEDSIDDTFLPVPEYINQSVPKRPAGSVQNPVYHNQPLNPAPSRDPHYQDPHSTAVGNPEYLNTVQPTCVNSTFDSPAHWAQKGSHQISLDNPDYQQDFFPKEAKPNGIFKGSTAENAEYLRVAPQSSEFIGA
PIK3CA (human), P42336 [E545A], sequence (P42336 whole entry E545A, looked up): as the sequence (P42336 whole entry, looked up) above, with E545A counted along it
PIK3CA (human), P42336 [E545K], sequence (P42336 whole entry E545K, looked up): as the sequence (P42336 whole entry, looked up) above, with E545K counted along it

Structure (SMILES) | kinase still bound, per cent of control (ICK (human)) [%] | kinase still bound, per cent of control (GRK4 (human)) [%] | kinase still bound, per cent of control (TAOK2 (human)) [%] | kinase still bound, per cent of control (SIK3 (human)) [%] | kinase still bound, per cent of control (CSNK1A1 (human)) [%] | kinase still bound, per cent of control (DSTYK (human)) [%] | kinase still bound, per cent of control (EGFR (human)) [%] | kinase still bound, per cent of control (EPHB6 (human)) [%] | kinase still bound, per cent of control (HIPK4 (human)) [%] | kinase still bound, per cent of control (HIPK3 (human)) [%] | kinase still bound, per cent of control (MATK (human)) [%] | kinase still bound, per cent of control (GRK1 (human)) [%] | kinase still bound, per cent of control (MET (human)) [%] | kinase still bound, per cent of control (PIK3C2G (human)) [%] | kinase still bound, per cent of control (LRRK2 (human)) [%] | kinase still bound, per cent of control (NEK3 (human)) [%] | kinase still bound, per cent of control (ERBB3 (human)) [%] | kinase still bound, per cent of control (CDKL1 (human)) [%] | kinase still bound, per cent of control (HIPK2 (human)) [%] | kinase still bound, per cent of control (VRK2 (human)) [%] | other results
C[C@@H](Oc1cc(-n2cnc3ccc(CN4CCN(C)CC4)cc32)sc1C(N)=O)c1ccccc1C(F)(F)F | 85 | 16 | 94 | 69 | 91 | 34 | 87 | 59 | 36 | 37 | 52 | 50 | 76 | 40 | 60 | 100 | 100 | 75 | 36 | 100 | kinase still bound, per cent of control [1]: 71%; kinase still bound, per cent of control [2]: 55%; kinase still bound, per cent of control (PIK3CA (human)): 52%; kinase still bound, per cent of control (PIK3CG (human)): 6.4%; kinase still bound, per cent of control (MAP3K1 (human)): 3.7%; kinase still bound, per cent of control (ERN1 (human)): 34%; kinase still bound, per cent of control (MAP3K13 (human)): 87%; kinase still bound, per cent of control [3]: 40%; kinase still bound, per cent of control (PI4KB (human)): 100%; kinase still bound, per cent of control (IRAK1 (human)): 23%; kinase still bound, per cent of control (HUNK (human)): 78%; kinase still bound, per cent of control (CDK4 CCND3 (human)): 70%; kinase still bound, per cent of control (ROCK1 (human)): 7.9%; kinase still bound, per cent of control (STK39 (human)): 11%; kinase still bound, per cent of control (MAP3K2 (human)): 100%; kinase still bound, per cent of control (PIP5K1C (human)): 18%; kinase still bound, per cent of control (SNRK (human)): 100%; kinase still bound, per cent of control (NEK11 (human)): 100%; kinase still bound, per cent of control (TRPM6 (human)): 100%
CN(C)C/C=C/C(=O)Nc1cccc(Nc2ncc3c(n2)N(C)c2ccccc2C(=O)N3C)c1 | 70 | 66 | 0 | 20 | 26 | 18 | 69 | 4.3 | 76 | 85 | 69 | 100 | 48 | 76 | 31 | 58 | 89 | 83 | 89 | 73 | kinase still bound, per cent of control [1]: 100%; kinase still bound, per cent of control [2]: 0.1%; kinase still bound, per cent of control (PIK3CA (human)): 54%; kinase still bound, per cent of control (TIE1 (human)): 5.4%; kinase still bound, per cent of control (PIK3CG (human)): 0%; kinase still bound, per cent of control (MAP3K1 (human)): 72%; kinase still bound, per cent of control (ERN1 (human)): 69%; kinase still bound, per cent of control (MAP3K13 (human)): 40%; kinase still bound, per cent of control [3]: 67%; kinase still bound, per cent of control (PI4KB (human)): 87%; kinase still bound, per cent of control (IRAK1 (human)): 19%; kinase still bound, per cent of control (HUNK (human)): 47%; kinase still bound, per cent of control (CDK4 CCND3 (human)): 85%; kinase still bound, per cent of control (ROCK1 (human)): 49%; kinase still bound, per cent of control (STK39 (human)): 100%; kinase still bound, per cent of control (MAP3K2 (human)): 0.1%; kinase still bound, per cent of control (PIP5K1C (human)): 11%; kinase still bound, per cent of control (SNRK (human)): 58%; kinase still bound, per cent of control (NEK11 (human)): 77%; kinase still bound, per cent of control (TRPM6 (human)): 91%
O=C(O)c1ccc(Nc2ncc3c(n2)-c2ccc(Cl)cc2C(c2c(F)cccc2F)=NC3)cc1 | 86 | 100 | 94 | 98 | 73 | 100 | 43 | 41 | 31 | 80 | 84 | 100 | 49 | 16 | 82 | 100 | 74 | 100 | 100 | 100 | kinase still bound, per cent of control [1]: 100%; kinase still bound, per cent of control (PIK3CA (human)): 100%; kinase still bound, per cent of control (PIK3CG (human)): 100%; kinase still bound, per cent of control (MAP3K1 (human)): 100%; kinase still bound, per cent of control (ERN1 (human)): 100%; kinase still bound, per cent of control (MAP3K13 (human)): 100%; kinase still bound, per cent of control [3]: 20%; kinase still bound, per cent of control (PI4KB (human)): 100%; kinase still bound, per cent of control (IRAK1 (human)): 93%; kinase still bound, per cent of control (HUNK (human)): 59%; kinase still bound, per cent of control (CDK4 CCND3 (human)): 100%; kinase still bound, per cent of control (ROCK1 (human)): 63%; kinase still bound, per cent of control (STK39 (human)): 100%; kinase still bound, per cent of control (MAP3K2 (human)): 100%; kinase still bound, per cent of control (PIP5K1C (human)): 49%; kinase still bound, per cent of control (SNRK (human)): 74%; kinase still bound, per cent of control (NEK11 (human)): 100%; kinase still bound, per cent of control (TRPM6 (human)): 100%
Cc1cc([C@@H](C)Nc2ccccc2C(=O)O)c2nc(N3CCOCC3)cc(=O)n2c1 | 100 | 90 | 94 | 95 | 63 | 100 | 96 | 41 | 100 | 89 | 96 | 100 | 86 | 7 | 100 | 100 | 100 | 100 | 79 | 100 | kinase still bound, per cent of control [2]: 94%; kinase still bound, per cent of control (TIE1 (human)): 100%; kinase still bound, per cent of control (MAP3K1 (human)): 90%; kinase still bound, per cent of control (ERN1 (human)): 91%; kinase still bound, per cent of control (MAP3K13 (human)): 100%; kinase still bound, per cent of control (PI4KB (human)): 100%; kinase still bound, per cent of control (IRAK1 (human)): 90%; kinase still bound, per cent of control (HUNK (human)): 81%; kinase still bound, per cent of control (CDK4 CCND3 (human)): 100%; kinase still bound, per cent of control (ROCK1 (human)): 73%; kinase still bound, per cent of control (STK39 (human)): 100%; kinase still bound, per cent of control (MAP3K2 (human)): 100%; kinase still bound, per cent of control (PIP5K1C (human)): 63%; kinase still bound, per cent of control (SNRK (human)): 89%; kinase still bound, per cent of control (NEK11 (human)): 100%; kinase still bound, per cent of control (TRPM6 (human)): 100%
